Source: the NIST ThermoML archive (doi:10.1021/je060068f)
± gives the expanded uncertainty stated by the source.

Conditions: Liquid; pulse-heating method

Structure (SMILES) | Critical pressure | Critical temperature
CCCOC(=O)c1ccccc1C(=O)OCCC [1,2-benzenedicarboxylic acid dipropyl ester] | 1900 ± 70 kPa | 784 ± 9 K
CCCCCCCCCOC(=O)c1ccccc1C(=O)OCCCCCCCCC [dinonyl phthalate] | 1020 ± 40 kPa | 858 ± 9 K
CCCCCCCCOC(=O)c1ccccc1C(=O)OCCCCCCCC [dioctyl 1,2-benzenedicarboxylate] | 1080 ± 40 kPa | 840 ± 9 K
CCCCCCOC(=O)c1ccccc1C(=O)OCCCCCC [dihexyl phthalate] | 1340 ± 50 kPa | 817 ± 9 K
CCCCCOC(=O)c1ccccc1C(=O)OCCCCC | 1430 ± 50 kPa | 811 ± 9 K
CCCCCCCCCCOC(=O)c1ccccc1C(=O)OCCCCCCCCCC [didecyl phthalate] | 940 ± 30 kPa | 870 ± 10 K
CCCCOC(=O)c1ccccc1C(=O)OCCCC [dibutyl phthalate] | 1660 ± 60 kPa | 797 ± 9 K
CCCCCCCCCCCOC(=O)c1ccccc1C(=O)OCCCCCCCCCCC [diundecyl phthalate] | 890 ± 30 kPa | 886 ± 10 K
CCOC(=O)c1ccccc1C(=O)OCC [diethyl phthalate] | 2260 ± 80 kPa | 776 ± 9 K
CCCCCCCOC(=O)c1ccccc1C(=O)OCCCCCCC [diheptyl phthalate] | 1240 ± 40 kPa | 830 ± 9 K
CCCCC(CC)COC(=O)c1ccccc1C(=O)OCC(CC)CCCC (centres undefined) [bis(2-ethylhexyl) 1,2-benzenedicarboxylate] | 1070 ± 40 kPa | 835 ± 9 K
COC(=O)c1ccccc1C(=O)OC [dimethyl 1,2-benzenedicarboxylate] | 2770 ± 100 kPa | 772 ± 9 K
